# ChEMBL document CHEMBL1148189, “New diterpenes from the gorgonian Solenopodium excavatum” (1993)
# The source made the active and inactive calls. The calls are words filed in the database; no cut-off is given here.
# Tested on: P388
# Experiment: Cytotoxicity against mouse P388 cells
# Format: functional
# Details: not given
row,SMILES,Activity
1,CC(=O)O[C@@H]1[C@H]2[C@@H](C)[C@@H](O)[C@@H](O)[C@H](OC(C)=O)[C@]2(C)[C@@H](OC(C)=O)[C@H](OC(C)=O)C/C(C)=C\[C@@H]2OC(=O)[C@]3(C)O[C@@]213,inactive
2,CC(=O)O[C@@H]1[C@H]2C(C)=C[C@@H](O)[C@H](OC(C)=O)[C@]2(C)[C@@H](OC(C)=O)[C@H](OC(C)=O)C/C(C)=C\[C@@H]2OC(=O)[C@]3(C)O[C@@]213,inactive
3,CCCC(=O)O[C@@H]1C/C(C)=C\[C@@H]2OC(=O)[C@]3(C)O[C@]23[C@H](OC(C)=O)[C@H]2[C@@]3(C)O[C@H]3[C@@H](O)[C@H](OC(C)=O)[C@]2(C)[C@H]1OC(C)=O,inactive
4,CC(=O)OC/C1=C/[C@@H]2OC(=O)[C@]3(C)O[C@]23[C@H](OC(C)=O)[C@H]2[C@@]3(C)O[C@H]3C[C@H](OC(C)=O)[C@]2(C)[C@@H](OC(C)=O)C[C@H]1OC(C)=O,inactive
5,CC(=O)O[C@H]1C[C@@H](OC(C)=O)/C(C)=C\[C@@H]2OC(=O)[C@]3(C)O[C@]23[C@H](OC(C)=O)[C@H]2[C@@](C)(O)[C@H](OC(C)=O)C=C[C@]12C,inactive
6,CC(=O)O[C@H]1C[C@@H]2O[C@]2(C)[C@@H]2[C@@H](OC(C)=O)[C@]34O[C@@]3(C)C(=O)O[C@H]4/C=C(/CO)[C@H](OC(C)=O)C[C@H](OC(C)=O)[C@@]12C,inactive
7,CC(=O)O[C@@H]1[C@H]2[C@@]3(C)O[C@H]3[C@@H](O)[C@H](OC(C)=O)[C@]2(C)[C@@H](OC(C)=O)[C@H](OC(C)=O)C/C(C)=C\[C@@H]2OC(=O)[C@]3(C)O[C@@]213,inactive
8,CC(=O)O[C@@H]1[C@@H]2O[C@]2(C)[C@@H]2[C@@H](OC(C)=O)[C@]34O[C@@]3(C)C(=O)O[C@H]4/C=C(/C)C[C@@H](OC(C)=O)[C@H](OC(C)=O)[C@@]2(C)[C@H]1OC(C)=O,inactive

# Same assay, conditions: read-out: ED50 (the source's name)
row,SMILES,EC50 [µg/mL]
1,CCCC(=O)O[C@@H]1C/C(C)=C\[C@@H]2OC(=O)[C@]3(C)O[C@]23[C@H](OC(C)=O)[C@H]2C(C)=C[C@@H](O)[C@H](OC(C)=O)[C@]2(C)[C@H]1OC(C)=O [STECHOLIDE I],23
